In ChEMBL document CHEMBL3596090, “Discovery of novel pyrazole-containing benzamides as potent RORγ inverse agonists” (Bioorg Med Chem Lett, 2015):
Values after ≈ are worked out from the molar mass of the structure shown.

How the values were obtained:
[1] = target: T1, Nuclear receptor ROR-gamma (Mus musculus, UniProt P51450); assay: Inverse agonist activity at RORgamma in C57BL/6 mouse splenocytes assessed as reduction of IL-17 production after 2 days by ELISA; assay type: cell-based
T1 sequence (P51450 whole entry): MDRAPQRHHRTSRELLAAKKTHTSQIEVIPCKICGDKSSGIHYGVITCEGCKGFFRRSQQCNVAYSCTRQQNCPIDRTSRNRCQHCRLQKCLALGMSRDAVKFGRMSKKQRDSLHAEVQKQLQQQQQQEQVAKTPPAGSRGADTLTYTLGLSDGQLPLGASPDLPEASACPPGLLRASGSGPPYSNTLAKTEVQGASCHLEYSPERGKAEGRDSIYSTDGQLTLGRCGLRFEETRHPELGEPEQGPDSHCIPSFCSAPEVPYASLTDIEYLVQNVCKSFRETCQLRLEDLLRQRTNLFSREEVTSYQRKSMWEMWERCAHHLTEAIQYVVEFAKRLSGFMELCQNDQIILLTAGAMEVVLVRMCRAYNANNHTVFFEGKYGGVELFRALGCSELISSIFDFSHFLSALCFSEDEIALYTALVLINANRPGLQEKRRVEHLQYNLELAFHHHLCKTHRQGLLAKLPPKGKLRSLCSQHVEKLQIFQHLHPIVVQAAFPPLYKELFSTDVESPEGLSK

[2] = Kinetic aqueous solubility of the compound; assay type: physicochemical; settings: buffer; read-out: Kinetic_solubility
[3] = AUC in po dosed rat; assay type: ADME, organism-based; settings: in vivo
[4] = target: T2, Nuclear receptor ROR-gamma (Homo sapiens, UniProt P51449); assay: Binding affinity to GST-tagged RORgamma LBD (unknown origin) assessed as inhibition of interaction with co-activatior peptide TRAP220 preincubated for 1 hr followed by TRAP220 addition by FRET analysis
T2 sequence (P51449 whole entry): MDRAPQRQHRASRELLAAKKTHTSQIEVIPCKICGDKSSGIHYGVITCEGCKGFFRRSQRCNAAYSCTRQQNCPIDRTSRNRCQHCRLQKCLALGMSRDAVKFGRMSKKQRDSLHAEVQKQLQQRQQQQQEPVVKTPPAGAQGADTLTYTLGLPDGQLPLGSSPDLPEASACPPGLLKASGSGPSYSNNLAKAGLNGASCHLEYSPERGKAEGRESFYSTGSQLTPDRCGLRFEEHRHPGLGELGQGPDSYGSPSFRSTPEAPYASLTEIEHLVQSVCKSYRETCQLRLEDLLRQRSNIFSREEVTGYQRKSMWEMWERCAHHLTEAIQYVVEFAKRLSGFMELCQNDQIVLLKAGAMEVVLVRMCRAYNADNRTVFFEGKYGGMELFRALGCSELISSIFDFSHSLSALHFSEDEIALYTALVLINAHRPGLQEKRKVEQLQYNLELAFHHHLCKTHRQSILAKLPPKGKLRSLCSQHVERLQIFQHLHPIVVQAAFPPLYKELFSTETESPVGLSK

[5] = target: T2, Nuclear receptor ROR-gamma; assay: Inverse agonist activity at RORgamma (unknown origin) transfected in HEK293T cells after 16 to 20 hrs by GAL4 luciferase reporter gene assay; assay type: functional, cell-based, HEK-293T
[6] = Percentage unbound in rat plasma; assay type: ADME, cell-free
[7] = Percentage unbound in human plasma; assay type: ADME, cell-free
[8] = AUC in mouse at 25 mg/kg, po; assay type: ADME, organism-based; settings: in vivo
[9] = target: T3, Nuclear receptor ROR-alpha (Homo sapiens, UniProt P35398); assay: Inverse agonist activity at RORalpha (unknown origin)
T3 sequence (P35398 whole entry): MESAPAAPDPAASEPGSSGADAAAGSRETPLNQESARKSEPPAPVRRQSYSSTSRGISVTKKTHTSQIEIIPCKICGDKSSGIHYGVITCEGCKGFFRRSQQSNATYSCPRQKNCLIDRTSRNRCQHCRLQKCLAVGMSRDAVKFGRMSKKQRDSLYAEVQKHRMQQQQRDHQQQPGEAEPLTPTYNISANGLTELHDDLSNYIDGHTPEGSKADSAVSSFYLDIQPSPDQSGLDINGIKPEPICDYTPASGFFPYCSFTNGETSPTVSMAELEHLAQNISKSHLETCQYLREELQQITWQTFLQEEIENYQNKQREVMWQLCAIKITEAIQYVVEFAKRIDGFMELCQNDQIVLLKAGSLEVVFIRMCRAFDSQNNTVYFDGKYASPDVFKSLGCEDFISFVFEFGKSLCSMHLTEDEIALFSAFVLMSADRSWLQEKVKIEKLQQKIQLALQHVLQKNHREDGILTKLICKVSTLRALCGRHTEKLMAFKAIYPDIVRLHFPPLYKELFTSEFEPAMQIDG

[10] = target: T4, Nuclear receptor ROR-beta (Homo sapiens, UniProt Q92753); assay: Inverse agonist activity at RORbeta (unknown origin)
T4 sequence (Q92753 whole entry): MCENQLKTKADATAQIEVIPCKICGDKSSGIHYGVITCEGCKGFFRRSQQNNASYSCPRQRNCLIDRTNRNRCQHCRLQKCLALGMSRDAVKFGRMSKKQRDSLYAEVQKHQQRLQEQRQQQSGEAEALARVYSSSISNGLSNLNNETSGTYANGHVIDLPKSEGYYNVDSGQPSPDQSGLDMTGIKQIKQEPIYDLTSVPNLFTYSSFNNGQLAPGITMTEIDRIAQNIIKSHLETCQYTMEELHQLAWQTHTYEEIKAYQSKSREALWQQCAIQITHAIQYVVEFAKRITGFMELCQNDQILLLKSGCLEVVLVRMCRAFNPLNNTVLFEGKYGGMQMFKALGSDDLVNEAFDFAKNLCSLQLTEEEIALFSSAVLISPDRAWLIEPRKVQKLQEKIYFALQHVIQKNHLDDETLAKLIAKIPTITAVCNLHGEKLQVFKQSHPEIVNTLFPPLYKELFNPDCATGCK

[11] = AUC (0 to 7 hrs) in rat at 10 mg/kg, po; assay type: ADME, organism-based; design: time < 7 hr, dose 10 mg/kg, route oral; settings: in vivo
[12] = target: T5, Nuclear receptor subfamily 1 group I member 2 (Homo sapiens, UniProt O75469); assay: Activation of PXR (unknown origin)
T5 sequence (O75469 whole entry): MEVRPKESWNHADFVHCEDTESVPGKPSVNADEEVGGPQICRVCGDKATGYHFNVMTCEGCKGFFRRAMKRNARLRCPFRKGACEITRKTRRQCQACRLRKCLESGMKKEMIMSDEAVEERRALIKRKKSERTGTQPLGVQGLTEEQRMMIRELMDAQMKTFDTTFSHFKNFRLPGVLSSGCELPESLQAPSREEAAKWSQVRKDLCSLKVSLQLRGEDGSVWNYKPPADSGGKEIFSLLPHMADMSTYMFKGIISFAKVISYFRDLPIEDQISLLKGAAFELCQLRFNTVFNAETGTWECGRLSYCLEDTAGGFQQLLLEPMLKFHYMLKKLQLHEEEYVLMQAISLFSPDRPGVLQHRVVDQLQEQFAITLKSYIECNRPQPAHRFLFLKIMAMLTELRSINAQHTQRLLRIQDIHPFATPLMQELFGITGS

## [2H]C([2H])([2H])N(C(=O)c1c(F)cccc1Cl)c1ccc(-c2cc(C(N)=O)ccc2Cl)cc1OCC(F)(F)F
[1]
  EC50: 895 nM
[2]
  solubility kinetic: 0.3 µg/mL (≈ 0.579 µM)
[3]
  AUC: 3130 ng·h/mL
[4]
  IC50: 29 nM
[5]
  EC50: 98 nM
[6]
  fraction unbound: 0.002
[7]
  fraction unbound: 0.003

## [2H]C([2H])([2H])N(C(=O)c1c(F)cccc1Cl)c1ccc(-c2cc(NC(C)=O)nn2C(C)C)cc1N1CC2CC2C1 (configuration not stated)
[8]
  AUC: 2830 ng·h/mL
[1]
  EC50: 38 nM
[9]
  EC50: 1600 nM
[2]
  solubility kinetic: 2.1 µg/mL (≈ 4.09 µM)
[10]
  EC50: 1300 nM
[11]
  AUC(0-t) at 7 h: 1040 ng·h/mL
[12]
  EC50: 9900 nM
[6]
  fraction unbound: 0.002
[7]
  fraction unbound: 0.014

## CC(=O)Nc1cc(-c2cnc(N(C)C(=O)c3c(F)cccc3Cl)c(N3CCCCC3)c2)n(C(C)C)n1
[8]
  AUC: 2260 ng·h/mL
[1]
  EC50: 34 nM
[9]
  EC50: 9300 nM
[2]
  solubility kinetic: 37.4 µg/mL (≈ 72.9 µM)
[10]
  EC50: 2300 nM
[11]
  AUC(0-t) at 7 h: 927 ng·h/mL
[12]
  EC50: 5400 nM
[6]
  fraction unbound: 0.013
[7]
  fraction unbound: 0.076

## CC(=O)Nc1nc(-c2cnc(N(C)C(=O)c3c(F)cccc3Cl)c(N3CCCCC3)c2)n(C(C)C)n1
[4]
  IC50: > 5000 nM
[5]
  EC50: > 1000 nM
